Data published in US20080194522A1, “Development of Fluorogenic Substrates For Monoamine Oxidases (Mao-A and Mao-B)” (priority 2004, published 2008).
“Also recorded” adds a separate entry of the source. Marks after values point to notes of the source that are not given here.

Columns and labels:
[1] = Photophysical characterization (absorbance, extinction coefficient, emission, quantum yield); type: physicochemical; details: for ΦEtOH: EtOH; for ΦH2O: H2O; for fluorescence, in words: aqueous / phosphate buffer
Description: Extinction coefficients were the average of three independent determinations of three different readings from the lowest energy transition at three concentrations. Quantum yields are the average of three determinations of both quantum yield standard 9,10-diphenylanthracene and the synthesized coumarines at 340 nm unless otherwise indicated.
All spectra were recorded in 100 mM sodium phosphate (pH 7.4) unless otherwise indicated. Recorded λmax is that of the longest wavelength transition. Extinction coefficients were reported as the average of at least three independent preparations of the probes. Fluorescence measurements were taken on a Jobin Yvon Fluorolog fluorescence spectrofluorometer (slits 3, HV 750) in 100 mM sodium phosphate pH 7.4 buffer unless otherwise indicated. Quantum yields were measured relative to 9,10 diphenylanthracene in EtOH.4 Reported quantum efficiencies are the average of at least three independent preparations of the probes.
The extinction coefficient ε relates the absorbance of a compound to its concentration as expressed in Beer's law (A=εbc where A is absorbance, b is pathlength, and c is concentration). Extinction coefficients were the average of three independent determinations of three different readings of absorbance from the lowest energy transition at three concentrations. The quantum yield of fluorescence is the fraction of absorbed photons that lead to fluorescence; the number of photons fluoresced divided by the number of photons absorbed. To obtain the quantum yields of the synthesized coumarines their efficiency was compared to standard 9,10-diphenylanthracene at 340 nm in three different determinations. The effect of different solvents on the fluorescence of the compounds was also tested. The compounds were dissolved in methanol, chloroform and toluene and their emissions spectrum was taken.

[2] = Solubility in aqueous solution; type: physicochemical; details: in words
[3] = Chemical stability; details: in words
[4] = Fluorescence switch / apparent fluorescence increase, product versus substrate; type: physicochemical
Description: Apparent fluorescence increase was calculated by comparing the slopes (arbitrary fluorescence units/μM) of standard curves of chemically synthesized product and substrate concentration versus fluorescence intensity. Calculation of the apparent fluorescence increase is shown below for probe 9, which has a 21000% apparent fluorescence increase in emission intensity at λem=524 nm. The constants fP and fS were calculated from the slope of a line of fluorescence intensity versus concentration of chemically synthesized product indole 10 and substrate 9, respectively. These slopes were obtained from calibration curves of at least five concentrations of 9 and 10 in phosphate buffer (pH 7.4). The preparations of the compounds in mitochondrial assay buffer have negligible effects on fS and fP.

[5] = Table 5, 100 mM sodium phosphate pH 7.4
[6] = Table 5, 100 mM sodium phosphate pH 7.4, longest wavelength transition
[7] = Table 5, relative to 9,10-diphenyl anthracene (excited at 340 nm)
[8] = Table 5, relative to 9,10-diphenyl anthracene (excited at 365 nm)
[9] = Table 3, in water, relative to 9,10-diphenyl anthracene (excited at 365 nm)
[10] = Table 3 hydroxyl-amine probes, in water
[11] = Table 4, in water, relative to 9,10-diphenyl anthracene (excited at 365 nm)
[12] = Table 4 indoles, in water, first λmax column
[13] = Table 4 indoles, in water, second λmax
[14] = Table 4, in water, relative to coumarin 6 (excited at 420 nm)
[15] = Table 4, in water, relative to 9,10-diphenyl anthracene (excited at 340 nm)

7-(1H-Indol-5-yl)-4-methyl-chromen-2-one [Probe 4]
ε (M^−1cm^−1) [1, 5]: 11,600 ± 800 M^−1cm^−1 | λmax (nm) [1, 6]: 349 nm | ΦEtOH [1, 7]: 0.36 ± 0.07^a | ΦH2O [1, 7]: 0.13 ± 0.02^a

7-(4-Amino-phenyl)-4-methyl-chromen-2-one [Probe 1]
ε (M^−1cm^−1) [1, 5]: 13,000 ± 1,000 M^−1cm^−1 | λcm (nm) [1, 5]: 484 nm | λmax (nm) [1, 6]: 390 nm | ΦEtOH [1, 8]: 0.0287 ± 0.0006^b | ΦH2O [1, 8]: 0.00112 ± 0.00008^b

7-[4-Amino-3-(2-hydroxy-ethyl)-phenyl]-4-methyl-chromen-2-one [Probe 3]
λcm (nm) [1, 5]: 492 nm | λmax (nm) [1, 6]: 350 nm | ΦH2O [1, 7]: 0.010 ± 0.003^a

Cc1cc(=O)oc2ccc(N)c(CCN)c12 [IV]
Φ ([1]; Table 2, in water, relative to 9,10-diphenyl anthracene (excited at 340 nm)): 0.010

Nc1ccc2oc(=O)ccc2c1CCO [IX]
Φ [1, 9]: 0.0017 | ε (M^−1cm^−1) [1, 10]: 3,400 ± 500 M^−1cm^−1 | λmax (nm) [1, 10]: 357 nm

CCN(CC)c1ccc2c(C)c(-c3ccc(N)c(CCN)c3)c(=O)oc2c1 [I]
ε (M^−1cm^−1) ([1]; Table 2 diamines, in water): 13,000 ± 1,000 M^−1cm^−1 | λcm (nm) ([1]; Table 2 diamines, in water): 484 nm | λmax (nm) ([1]; Table 2 diamines, in water): 390 nm

CCN(CC)c1ccc2c(C)c(-c3ccc(N)c(CCO)c3)c(=O)oc2c1 [Probe 16, 3-[4-Amino-3-(2-hydroxy-ethyl)-phenyl]-7-diethylamino-4-methyl-chromen-2-one]
solubility in aqueous solution [2]: reasonably soluble | fluorescence, in words [1]: much less fluorescent than Probe 17 | chemical stability [3]: chemically and photo-physically stable

Cc1c(-c2ccc(N)c(CCO)c2)c(=O)oc2c3c4c(cc12)CCCN4CCC3 [Probe 23, 9-[4-Amino-3-(2-hydroxy-ethyl)-phenyl]-8-methyl-2,3,5,6-tetrahydro-1H, 4H-11-oxa-3a-aza-benzo[de]anthracen-10-one]
fluorescence emission intensity increase, indole/pyrrolocoumarin versus aniline/aminocoumarin [4]: 6 fold

Cc1c(-c2ccc3[nH]ccc3c2)c(=O)oc2c3c4c(cc12)CCCN4CCC3 [Probe 24, 9-(1H-Indol-5-yl)-8-methyl-2,3,5,6-tetrahydro-1H, 4H-11-oxa-3a-aza-benzo[de]anthracen-10-one]
emission wavelength [1]: 495 nm

O=c1oc2c3c4c(cc2c(C(F)(F)F)c1-c1ccc2[nH]ccc2c1)CCCN4CCC3 [Probe 25, 9-(1H-Indol-5-yl)-8-trifluoromethyl-2,3,5,6-tetrahydro-1H, 4H-11-oxa-3a-aza-benzo[de]anthracen-10-one]
fluorescence quantum yield, in words [1]: rather low quantum yield | fluorescence, in words [1]: distinct red-shift emission

Cc1cc(=O)oc2c1ccc1[nH]ccc12 [Probe 36, 4-Methyl-7H-pyrano[2,3-e]indol-2-one]
fluorescence, in words [1]: very weak fluorescence emission intensity; also recorded: very weakly fluorescent

Cc1cc(=O)oc2ccc3[nH]ccc3c12 [Probe 52, 9-Methyl-3H-pyrano[3,2-e]indol-7-one]
fluorescence, in words [1]: quite fluorescent

Cc1cc(=O)oc2ccc3cc[nH]c3c12 [Probe 55, 9-Methyl-1H-pyrano[2,3-g]indol-7-one]
fluorescence, in words [1]: quite fluorescent

Cc1cc(=O)oc2ccc(N)c(CCO)c12 [Probe 57, 6-Amino-5-(2-hydroxy-ethyl)-4-methyl-chromen-2-one]
solubility in aqueous solution [2]: very soluble | fluorescence, in words [1]: essentially non-fluorescent; also recorded: very weakly fluorescent | chemical stability [3]: chemically and photo-physically stable

Nc1cc2ccc(=O)oc2cc1CCO [Probe 58, 6-Amino-7-(2-hydroxy-ethyl)-chromen-2-one]
fluorescence, in words [1]: basically non-fluorescent; also recorded: very weakly fluorescent

O=c1ccc2cc3[nH]ccc3cc2o1 [Probe 59, 1H-Pyrano[2,3-f]indol-6-one]
fluorescence emission intensity increase, indole/pyrrolocoumarin versus aniline/aminocoumarin [4]: around 2000 fold | fluorescence, in words [1]: quite fluorescent

Nc1c(CCO)ccc2oc(=O)ccc12 [Probe 81, 5-Amino-6-(2-hydroxy-ethyl)-chromen-2-one]
fluorescence, in words [1]: very weakly fluorescent; also recorded: only weak fluorescence

CCN(CC)c1ccc2c(C)c(-c3ccc(N)c(CCN)c3)c(=O)oc2c1 [Probe 114, 3-[4-Amino-3-(2-amino-ethyl)-phenyl]-7-diethylamino-4-methyl-chromen-2-one]
solubility in aqueous solution [2]: water solubility | chemical stability [3]: desired chemical stability

Cc1cc(=O)oc2ccc(N)c(CCN)c12 [Probe 115, 6-Amino-5-(2-amino-ethyl)-4-methyl-chromen-2-one]
chemical stability [3]: stable when protonated; also recorded: very unstable once deprotonated, or even under neutral condition

NCCc1cc2oc(=O)ccc2cc1N [Probe 116, 6-Amino-7-(2-amino-ethyl)-chromen-2-one]
fluorescence, in words [1]: very weakly fluorescent | chemical stability [3]: perfectly stable

CC12CC(=O)Oc3ccc(N)c(c31)CCN2 (centres unmarked) [Probe 125, 7-Amino-3a-methyl-3a,4,5,6-tetrahydro-3H-1-oxa-4-aza-phenalen-2-one]
fluorescence, in words [1]: non-fluorescent

Nc1cc2ccc(=O)oc2cc1CCO [VIII]
λmax (nm) [1, 10]: 354 nm

Cc1c(-c2ccc(N)c(CCO)c2)c(=O)oc2c3c4c(cc12)CCCN4CCC3 [VII]
Φ [1, 9]: 0.0040 | ε (M^−1cm^−1) [1, 10]: 21,000 ± 2,000 M^−1cm^−1 | λcm (nm) [1, 10]: 499 nm | λmax (nm) [1, 10]: 391 nm

CCN(CC)c1ccc2c(C)c(-c3ccc(N)c(CCO)c3)c(=O)oc2c1 [VI]
Φ [1, 9]: 0.014 | ε (M^−1cm^−1) [1, 10]: 15,000 ± 1,000 M^−1cm^−1 | λcm (nm) [1, 10]: 499 nm | λmax (nm) [1, 10]: 394 nm

NCCc1ccc2oc(=O)ccc2c1N [V]
ε (M^−1cm^−1) ([1]; Table 2 diamines, in water): 6,000 ± 100 M^−1cm^−1 | λmax (nm) ([1]; Table 2 diamines, in water): 299 nm

CCN(CC)c1ccc2c(C)c(-c3ccc4cc[nH]c4c3)c(=O)oc2c1 [XIII]
Φ [1, 11]: 0.0103 ± 0.0003^b | ε (M^−1cm^−1) ([1]; Table 4 indoles, in water): 20,000 ± 3,000 M^−1cm^−1 | λmax (nm) [1, 12]: 399 nm | λmax (nm) [1, 13]: 484 nm

CCN(CC)c1ccc2cc(-c3ccc4[nH]ccc4c3)c(=O)oc2c1 [XII]
Φ [1, 14]: 0.08 ± 0.02^c | ε (M^−1cm^−1) ([1]; Table 4 indoles, in water): 17,000 ± 1,000 M^−1cm^−1 | λmax (nm) [1, 12]: 401 nm | λmax (nm) [1, 13]: 477 nm

O=c1oc2c3c4c(cc2cc1-c1ccc2[nH]ccc2c1)CCCN4CCC3 [XIV]
Φ [1, 11]: 0.050 ± 0.005^b | λmax (nm) [1, 12]: 388 nm | λmax (nm) [1, 13]: 501 nm

O=c1ccc2c(ccc3[nH]ccc32)o1 [XIX]
Φ [1, 14]: 0.05 ± 0.02^c | ε (M^−1cm^−1) ([1]; Table 4 indoles, in water): 9,400 ± 900 M^−1cm^−1 | λmax (nm) [1, 12]: 355 nm | λmax (nm) [1, 13]: 517 nm

Cc1cc(=O)oc2cc(-c3ccc4[nH]ccc4c3)ccc12 [XI]
Φ [1, 15]: 0.00329 ± 0.00008^a | λmax (nm) [1, 12]: 339 nm | λmax (nm) [1, 13]: 445 nm

Cc1cc(=O)oc2ccc3[nH]ccc3c12 [XVIII]
Φ [1, 15]: 0.18 ± 0.05^a | ε (M^−1cm^−1) ([1]; Table 4 indoles, in water): 11,600 ± 800 M^−1cm^−1 | λmax (nm) [1, 12]: 349 nm | λmax (nm) [1, 13]: 492 nm

Cc1cc(=O)oc2ccc3cc[nH]c3c12 [XVII]
Φ [1, 15]: 0.0531 ± 0.0001^a | ε (M^−1cm^−1) ([1]; Table 4 indoles, in water): 14,000 ± 3,000 M^−1cm^−1 | λmax (nm) [1, 12]: 330 nm | λmax (nm) [1, 13]: 488 nm

O=c1oc2c3c4c(cc2c(C(F)(F)F)c1-c1ccc2[nH]ccc2c1)CCCN4CCC3 [XV]
λmax (nm) [1, 12]: 439 nm | λmax (nm) [1, 13]: 557 nm

O=c1ccc2cc3[nH]ccc3cc2o1 [XX]
Φ [1, 15]: 0.0082 ± 0.0004^a | ε (M^−1cm^−1) ([1]; Table 4 indoles, in water): 17,000 ± 2,000 M^−1cm^−1 | λmax (nm) [1, 12]: 335 nm | λmax (nm) [1, 13]: 524 nm

Nc1c(CCO)ccc2oc(=O)ccc12 [X]
ε (M^−1cm^−1) [1, 10]: 13,000 ± 3,000 M^−1cm^−1 | λmax (nm) [1, 10]: 298 nm

[4-(4-Methyl-2-oxo-2H-chromen-7-yl)-phenyl]-carbamic acid tert-butyl ester [Probe 2]
ε (M^−1cm^−1) [1, 5]: 17,000 ± 1,000 M^−1cm^−1 | λcm (nm) [1, 5]: 477 nm | λmax (nm) [1, 6]: 401 nm | ΦEtOH [1, 8]: 0.59 ± 0.09^b | ΦH2O [1, 8]: 0.08 ± 0.01^b
